Species on record: Rattus norvegicus
Test: DrugMatrix - Regimen: Daily Repeat
Type: toxicity, organism-based, Sprague-Dawley
Set-up: regimen Daily Repeat, gender Male, age 6-8 weeks
Settings: in vivo, po, route oral GAVAGE, […]; for TOTAL PROTEIN / ALANINE AMINOTRANSFERASE / ALBUMIN / ALKALINE PHOSPHATASE / ASPARTATE AMINOTRANSFERASE / BLOOD UREA NITROGEN / CARBON DIOXIDE / CHLORIDE / CHOLESTEROL / CREATINE PHOSPHOKINASE / CREATININE / GLUCOSE / LACTATE DEHYDROGENASE / LIPASE / PHOSPHORUS / POTASSIUM / SODIUM / TOTAL BILIRUBIN: tissue Plasma; for ABSOLUTE BASOPHIL / ABSOLUTE EOSINOPHIL / ABSOLUTE LYMPHOCYTE / ABSOLUTE MONOCYTE / ABSOLUTE SEGMENTED NEUTROPHIL / BASOPHIL / EOSINOPHIL / ERYTHROCYTE COUNT / HEMATOCRIT / HEMOGLOBIN / LEUKOCYTE COUNT / LYMPHOCYTE / MEAN CORPUSCULAR HEMOGLOBIN / MEAN CORPUSCULAR HEMOGLOBIN CONCENTRATION / MEAN CORPUSCULAR VOLUME / MONOCYTE / NEUTROPHIL / NUCLEATED RED BLOOD CELLS / PLATELET COUNT: tissue Blood
[1] = 40 mg/kg, 120 h, dose level Low, time 5 day
[2] = 90 mg/kg, 72 h, dose level High, time 3 day
[3] = 90 mg/kg, 120 h, dose level High, time 5 day

## CN(C)CCCC1(c2ccc(F)cc2)OCc2cc(C#N)ccc21 (stereo not given) [CITALOPRAM]
40 mg/kg, 72 h, dose level Low, time 3 day
  TOTAL PROTEIN: 4.8 G/DL
[1]
  ABSOLUTE BASOPHIL: 0 CELLS/uL
  ABSOLUTE EOSINOPHIL: 0 CELLS/uL
  ABSOLUTE LYMPHOCYTE: 8782.67 CELLS/uL
  ABSOLUTE MONOCYTE: 193 CELLS/uL
  ABSOLUTE SEGMENTED NEUTROPHIL: 424.33 CELLS/uL
  BASOPHIL: 0%
  EOSINOPHIL: 0%
  ERYTHROCYTE COUNT: 5.43 x10E6/uL
  HEMATOCRIT: 34.67%
  HEMOGLOBIN: 13.13 G/DL
  LEUKOCYTE COUNT: 9.4 x10E3/uL
  LYMPHOCYTE: 93.67%
  MEAN CORPUSCULAR HEMOGLOBIN: 24.23 pg
  MEAN CORPUSCULAR HEMOGLOBIN CONCENTRATION: 37.87 G/DL
  MEAN CORPUSCULAR VOLUME: 63.9 fL
  MONOCYTE: 2%
  NEUTROPHIL: 4.33%
  NUCLEATED RED BLOOD CELLS: 0 /100WBC
  PLATELET COUNT: 1141.33 x10E3/uL
  ALANINE AMINOTRANSFERASE: 63 u/L
  ALBUMIN: 3.87 G/DL
  ALKALINE PHOSPHATASE: 433.67 u/L
  ASPARTATE AMINOTRANSFERASE: 95 u/L
  BLOOD UREA NITROGEN: 10.67 mg/dL
  CARBON DIOXIDE: 31.33 mmol/L
  CHLORIDE: 100.67 MEQ/L
  CHOLESTEROL: 73 mg/dL
  CREATINE PHOSPHOKINASE: 389.67 u/L
  CREATININE: 0.14 mg/dL
  GLUCOSE: 160 mg/dL
  LACTATE DEHYDROGENASE: 173.67 u/L
  LIPASE: 10.67 u/L
  PHOSPHORUS: 10.57 mg/dL
  POTASSIUM: 5.68 MEQ/L
  SODIUM: 145.67 MEQ/L
  TOTAL BILIRUBIN: 0.1 mg/dL
  TOTAL PROTEIN: 5.87 G/DL
[2]
  ABSOLUTE BASOPHIL: 0 CELLS/uL
  ABSOLUTE EOSINOPHIL: 0 CELLS/uL
  ABSOLUTE LYMPHOCYTE: 13332.67 CELLS/uL
  ABSOLUTE MONOCYTE: 32 CELLS/uL
  ABSOLUTE SEGMENTED NEUTROPHIL: 868.67 CELLS/uL
  BASOPHIL: 0%
  EOSINOPHIL: 0%
  ERYTHROCYTE COUNT: 5.39 x10E6/uL
  HEMATOCRIT: 34.6%
  HEMOGLOBIN: 13.63 G/DL
  LEUKOCYTE COUNT: 14.23 x10E3/uL
  LYMPHOCYTE: 93.67%
  MEAN CORPUSCULAR HEMOGLOBIN: 25.3 pg
  MEAN CORPUSCULAR HEMOGLOBIN CONCENTRATION: 39.4 G/DL
  MEAN CORPUSCULAR VOLUME: 64.2 fL
  MONOCYTE: 0.33%
  NEUTROPHIL: 6%
  NUCLEATED RED BLOOD CELLS: 0 /100WBC
  PLATELET COUNT: 1096.33 x10E3/uL
  ALANINE AMINOTRANSFERASE: 59.67 u/L
  ALBUMIN: 3.87 G/DL
  ALKALINE PHOSPHATASE: 376.33 u/L
  ASPARTATE AMINOTRANSFERASE: 89 u/L
  BLOOD UREA NITROGEN: 9.33 mg/dL
  CARBON DIOXIDE: 26.67 mmol/L
  CHLORIDE: 102.5 MEQ/L
  CHOLESTEROL: 65.67 mg/dL
  CREATINE PHOSPHOKINASE: 142.33 u/L
  CREATININE: 0.11 mg/dL
  GLUCOSE: 156 mg/dL
  LACTATE DEHYDROGENASE: 214.33 u/L
  PHOSPHORUS: 10.6 mg/dL
  POTASSIUM: 6.1 MEQ/L
  SODIUM: 145.75 MEQ/L
  TOTAL BILIRUBIN: 0.2 mg/dL
  TOTAL PROTEIN: 5.5 G/DL
[3]
  ABSOLUTE BASOPHIL: 0 CELLS/uL
  ABSOLUTE EOSINOPHIL: 0 CELLS/uL
  ABSOLUTE LYMPHOCYTE: 14553.33 CELLS/uL
  ABSOLUTE MONOCYTE: 322.67 CELLS/uL
  ABSOLUTE SEGMENTED NEUTROPHIL: 1290.67 CELLS/uL
  BASOPHIL: 0%
  EOSINOPHIL: 0%
  ERYTHROCYTE COUNT: 5.96 x10E6/uL
  HEMATOCRIT: 37.47%
  HEMOGLOBIN: 14.47 G/DL
  LEUKOCYTE COUNT: 16.17 x10E3/uL
  LYMPHOCYTE: 90.67%
  MEAN CORPUSCULAR HEMOGLOBIN: 24.33 pg
  MEAN CORPUSCULAR HEMOGLOBIN CONCENTRATION: 38.67 G/DL
  MEAN CORPUSCULAR VOLUME: 62.9 fL
  MONOCYTE: 2%
  NEUTROPHIL: 7.33%
  NUCLEATED RED BLOOD CELLS: 0 /100WBC
  PLATELET COUNT: 1137 x10E3/uL
  ALANINE AMINOTRANSFERASE: 40.33 u/L
  ALBUMIN: 4 G/DL
  ALKALINE PHOSPHATASE: 365 u/L
  ASPARTATE AMINOTRANSFERASE: 81.67 u/L
  CARBON DIOXIDE: 28.67 mmol/L
  CHLORIDE: 100 MEQ/L
  CHOLESTEROL: 70.33 mg/dL
  CREATINE PHOSPHOKINASE: 309.67 u/L
  CREATININE: 0.14 mg/dL
  GLUCOSE: 179.33 mg/dL
  LACTATE DEHYDROGENASE: 263 u/L
  LIPASE: 10.67 u/L
  PHOSPHORUS: 11.03 mg/dL
  POTASSIUM: 5.22 MEQ/L
  SODIUM: 145.33 MEQ/L
  TOTAL BILIRUBIN: 0.13 mg/dL
  TOTAL PROTEIN: 6.03 G/DL
